Experimental data as given in patent US4211779A, “7α-Methoxy substituted cephalosporins” (Shionogi & Co., Ltd., priority 1976, dated 1980).
Converted amounts (≈) assume the structure as drawn.

Columns and labels:
Assay type in all cases: cell-based
[1] = test system: Escherichia coli No. 73; assay: Antibacterial activity (MIC), Escherichia coli No. 73
Procedure: (§1) Free acids found in Examples 2 to 5 are dissolved in dilute aqueous sodium hydrogencarbonate solution to yield the corresponding aqueous sodium salts solutions.

[2] = test system: Klebsilla pneumoniae No. 363; assay: Antibacterial activity (MIC), Klebsiella pneumoniae No. 363
Procedure: as §1

[3] = test system: gram negative bacteria resistant to cephalosporins; assay: antibacterial activity against gram negative bacteria resistant to cephalosporins; conditions: compared with the compound wherein Y is hydrogen
[4] = NO.363, Klebsiella pneumoniae No. 363, innoculum size 10^6
[5] = NO.363, Klebsiella pneumoniae No. 363, innoculum size 10^8

MIC ([1]; innoculum size 10^6)	MIC ([1]; innoculum size 10^8)	MIC [2, 4]	MIC [2, 5]	SMILES	antibacterial activity against gram negative bacteria resistant to cephalosporins [3]
25 µg/mL (≈ 38.7 µM)	> 100 µg/mL	100 µg/mL (≈ 155 µM)	> 100 µg/mL	CCN1CCN(C(=O)NC(C(=O)N[C@@H]2C(=O)N3C(C(=O)O)=C(CSc4nnnn4C)CS[C@H]23)c2ccc(O)cc2)C(=O)C1=O (stereo partly shown) [Y H]	
12.5 µg/mL (≈ 29.2 µM)	12.5 µg/mL (≈ 29.2 µM)	1.6 µg/mL (≈ 3.74 µM)	6.3 µg/mL (≈ 14.7 µM)	CO[C@@]1(NC(=O)Cc2cccs2)C(=O)N2C(C(=O)O)=C(COC(N)=O)CS[C@@H]21 [cefoxitin]	

SMILES	MIC ([1]; innoculum size 10^6)	MIC ([1]; innoculum size 10^8)	MIC [2, 4]	MIC [2, 5]	antibacterial activity against gram negative bacteria resistant to cephalosporins [3]
CCN1CCN(C(=O)NC(C(=O)NC2(OC)C(=O)N3C(C(=O)O)=C(CSc4nnnn4C)CSC32)c2ccc(O)cc2)C(=O)C1=O (stereo not shown) [Y OCH3]	1.6 µg/mL (≈ 2.37 µM)	3.1 µg/mL (≈ 4.59 µM)	0.8 µg/mL (≈ 1.18 µM)	1.6 µg/mL (≈ 2.37 µM)	more potent antibacterial activity
